# Source: ChEMBL document CHEMBL5365441, “Novel Foscan®-derived ring-fused chlorins for photodynamic therapy of cancer” (Bioorg Med Chem, 2023)
# How the values were obtained:
# MDA-MB-231 [1] = assay: Cytotoxicity against human MDA-MB-231 cells assessed as reduction in cell viability incubated for 24 hrs under dark condition by resazurin reduction assay; assay type: functional, cell-based; details: MDA-MB-231, 24 h
# [2] = Drug internalization in human MDA-MB-231 cells at 2.5 uM by flow cytometry analysis; assay type: ADME, cell-based; details: mda-mb-231, 2.5 µM, TDE = time-dependent effect, time 3-24 hrs
# MDA-MB-231 [3] = assay: Photocytotoxicity against human MDA-MB-231 cells assessed as reduction in cell viability preincubated for 24 hrs followed by washout and 1 J/cm2 light irradiation for 24 hrs by resazurin reduction assay; assay type: functional, cell-based; details: MDA-MB-231, light or radiation study
# [4] = Drug internalization in mouse NIH/3T3 cells at 2.5 uM by flow cytometry analysis; assay type: ADME, cell-based; details: nih3t3, 2.5 µM, TDE = time-dependent effect, time 3-24 hrs
# [5] = Photocytotoxicity against mouse NIH/3T3 cells assessed as reduction in cell viability preincubated for 24 hrs followed by washout and 1 J/cm2 light irradiation for 24 hrs by resazurin reduction assay; assay type: toxicity, cell-based, NIH3T3
# [6] = Cytotoxicity against mouse NIH/3T3 cells assessed as reduction in cell viability incubated for 24 hrs under dark condition by resazurin reduction assay; assay type: toxicity, cell-based, NIH3T3
# [7] = Photostability of compound in DMSO assessed as photodecomposition quantum yield; assay type: physicochemical
# [8] = Emission property of compound in DMSO assessed as fluorescence quantum yield; assay type: physicochemical
# [9] = Induction of singlet oxygen production in EtOH assessed as singlet oxygen quantum yield by SOSG reagent based assay; assay type: functional
# MDA-MB-231 [10] = assay: Phototherapeutic index, ratio of IC50 for cytotoxicity against human MDA-MB-231 cells under dark condition to IC50 for photocytotoxicity against human MDA-MB-231 cells in presence of 1 J/cm2 light irradiation; assay type: functional
# [11] = Drug distribution in endoplasmic reticulum of human U2OS cells expressing CALR-GFP assessed as increase in fluorescence intensity at 5 uM incubated for 24 hrs by Hoechst staining based confocal microscopic analysis; assay type: ADME, subcellular
# [12] = Drug distribution in golgi body of human U2OS cells expressing GALT1-GFP assessed as increase in fluorescence intensity at 5 uM incubated for 24 hrs by Hoechst staining based confocal microscopic analysis; assay type: ADME, subcellular
Drug uptake [2],Drug uptake [4],Activity [7],Activity [8],Drug uptake [11],Drug uptake [12],Compound,IC50 (MDA-MB-231 [1]) [nM],IC50 (MDA-MB-231 [3]) [nM],IC50 [5] [nM],IC50 at 24 h [6] [nM],Activity [9],Ratio IC50 (MDA-MB-231 [10])
Tde,Tde,,,,,Oc1cccc(-c2c3nc(c(-c4cccc(O)c4)c4ccc([nH]4)c(-c4cccc(O)c4)c4nc(c(-c5cccc(O)c5)c5ccc2[nH]5)C=C4)C=C3)c1,3310,25.7,12.5,9160,,
Tde,Tde,60.8 10^-6No_unit,0.11,,,COC(=O)c1cc2n(n1)CC1c3nc(c(-c4cccc(O)c4)c4ccc([nH]4)c(-c4cccc(O)c4)c4nc(c(-c5cccc(O)c5)c5ccc([nH]5)c3-c3cccc(O)c3)C=C4)C1C2 (centres undefined),7740,138,109,> 10000,0.53,56.27
Tde,Tde,54.8 10^-6No_unit,0.1,,,OCc1nn2c(c1CO)CC1c3nc(c(-c4cccc(O)c4)c4ccc([nH]4)c(-c4cccc(O)c4)c4nc(c(-c5cccc(O)c5)c5ccc([nH]5)c3-c3cccc(O)c3)C=C4)C1C2 (centres undefined),11400,309,343,> 10000,0.49,37
Tde,Tde,66.9 10^-6No_unit,0.11,Not Active,Not Active,COC(=O)c1cc2n(n1)CC1c3nc(c(-c4cccc(OC(C)=O)c4)c4ccc([nH]4)c(-c4cccc(OC(C)=O)c4)c4nc(c(-c5cccc(OC(C)=O)c5)c5ccc([nH]5)c3-c3cccc(OC(C)=O)c3)C=C4)C1C2 (centres undefined),> 10000,1.3,617,> 10000,0.45,
Tde,Tde,52.7 10^-6No_unit,0.1,Active,Active,OCc1cc2n(n1)CC1c3nc(c(-c4cccc(O)c4)c4ccc([nH]4)c(-c4cccc(O)c4)c4nc(c(-c5cccc(O)c5)c5ccc([nH]5)c3-c3cccc(O)c3)C=C4)C1C2 (centres undefined),7740,86.3,107,> 10000,0.5,93.37
Tde,Tde,60.8 10^-6No_unit,0.12,,,[N-]=[N+]=NCc1cc2n(n1)CC1c3nc(c(-c4cccc(O)c4)c4ccc([nH]4)c(-c4cccc(O)c4)c4nc(c(-c5cccc(O)c5)c5ccc([nH]5)c3-c3cccc(O)c3)C=C4)C1C2 (centres undefined),15800,106,93.1,10600,0.47,149.7
